Active and inactive are the calls of the source. No cut-off for these calls is given here.
Columns and labels:
[1] = Cmax in Sprague-Dawley rat at 2 mg/kg, iv measured after 24 hrs by LC-MS analysis; type: ADME, organism-based; conditions: in vivo
Mus musculus [2] = test: (§1) Protection against alcoholic liver disease in NIAAA C57BL/6J mouse model assessed as reduction in liver IL-1beta mRNA level at 1 to 2.5 mg/kg, po preadministered with 1 to 4 % of alcohol for 10 days with subsequent compound addition from day 6 to 11 and further administered with 31.25 % alcohol on day 11 and measured after 9 hrs by RT-qPCR analysis; type: functional, organism-based; conditions: dose 1-2.5 mg/kg, time 5.0 day
[3] = Toxicity in ketamine/xylazine-induced anesthetic C57BL/6J mouse model assessed as emetogenic potential by measuring reduction in anesthesia duration at 1 to 5 mg/kg, po preadministered with compound for 15 mins followed by ketamine/xylazine administration; type: organism-based; conditions: in vivo, 0.25 h, dose 1-5 mg/kg
Mus musculus [4] = test: (§2) Protection against alcohol use disorder in C57BL/6J mouse model assessed as decrease in alcohol intake at 1 to 2.5 mg/kg, po pre-trained with alcohol and water for 42 days with subsequent compound addition from day 22 to day 42 followed by 3.5 hrs of darkness and compound administration for 30 mins followed by water replacement with alcohol for 4 hrs on day 46 by Drink-in-Dark test; type: functional, organism-based; conditions: dose 1-2.5 mg/kg, time 23.0 day
[5] = Selectivity ratio for inhibition of PDE9A (unknown origin) using FAM-cyclic-3',5'-AMP as substrate to inhibition of PDE4D7 (unknown origin) using FAM-cyclic-3',5'-AMP as substrate
[6] = Drug concentration in Sprague-Dawley rat brain at 10 mg/kg, po administered as single dose for 1 hrs by LC-MS analysis; type: ADME, organism-based; conditions: read-out: Ct
[7] = Acute toxicity in C57BL/6J mouse assessed as druggability at 1 g/Kg, po administered for 14 days; type: organism-based; conditions: in vivo, 1000 mg/kg, 336 h, time 14 day
[8] = Cmax in Sprague-Dawley rat at 10 mg/kg, po measured after 24 hrs by LC-MS analysis; type: ADME, organism-based; conditions: in vivo
Mus musculus [9] = test: as §2, with “exposure-induced anxiety like behavior” for “use disorder”, “distance travelled” for “decrease in alcohol intake”, “and measured 24 hrs after alcohol withdrawal” for “on day 46”, “open field” for “Drink-in-Dark”; type: functional, organism-based; conditions: dose 1-2.5 mg/kg, time 24.0 day
[10] = Half-life in Sprague-Dawley rat at 10 mg/kg, po measured after 24 hrs by LC-MS analysis; type: ADME, organism-based; conditions: in vivo
[11] = AUC (0 to t) in Sprague-Dawley rat at 10 mg/kg, po measured after 24 hrs by LC-MS analysis; type: ADME, organism-based; conditions: in vivo
[12] = biological target: T1, 3',5'-cyclic-AMP phosphodiesterase 4D (Homo sapiens, UniProt Q08499); test: Inhibition of PDE4D7 (unknown origin) using FAM-cyclic-3',5'-AMP as substrate at 10 nM incubated for 1 hrs by fluorescence polarization based IMAP assay relative to control
T1 sequence (Q08499 whole entry): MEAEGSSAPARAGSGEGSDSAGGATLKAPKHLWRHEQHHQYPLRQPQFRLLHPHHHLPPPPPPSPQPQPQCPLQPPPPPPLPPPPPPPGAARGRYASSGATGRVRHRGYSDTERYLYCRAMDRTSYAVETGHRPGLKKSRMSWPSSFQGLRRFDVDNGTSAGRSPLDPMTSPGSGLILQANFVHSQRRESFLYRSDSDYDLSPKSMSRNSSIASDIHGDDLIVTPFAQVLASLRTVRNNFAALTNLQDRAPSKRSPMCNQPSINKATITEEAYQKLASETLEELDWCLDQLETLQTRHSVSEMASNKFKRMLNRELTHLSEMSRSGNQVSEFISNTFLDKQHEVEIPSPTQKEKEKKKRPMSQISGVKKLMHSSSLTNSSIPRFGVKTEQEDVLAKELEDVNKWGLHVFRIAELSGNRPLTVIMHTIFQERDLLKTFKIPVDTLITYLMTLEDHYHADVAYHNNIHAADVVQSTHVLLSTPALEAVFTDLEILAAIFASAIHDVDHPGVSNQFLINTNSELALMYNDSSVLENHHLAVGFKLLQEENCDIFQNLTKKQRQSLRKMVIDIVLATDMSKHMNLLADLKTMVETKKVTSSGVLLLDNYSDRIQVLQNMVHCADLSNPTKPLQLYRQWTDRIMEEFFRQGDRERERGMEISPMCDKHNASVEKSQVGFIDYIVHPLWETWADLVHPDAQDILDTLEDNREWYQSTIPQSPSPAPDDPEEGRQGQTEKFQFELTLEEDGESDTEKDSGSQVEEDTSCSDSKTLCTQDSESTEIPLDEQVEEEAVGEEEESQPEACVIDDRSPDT

[13] = Selectivity ratio for inhibition of PDE3B (unknown origin) using FAM-cyclic-3',5'-AMP as substrate to inhibition of PDE4B1 (unknown origin) using FAM-cyclic-3',5'-AMP as substrate
[14] = Volume of distribution at steady state in Sprague-Dawley rat at 2 mg/kg, iv measured after 24 hrs by LC-MS analysis; type: ADME, organism-based; conditions: in vivo, read-out: Vdss
Mus musculus [15] = test: as §1, with “IL-6” for “IL-1beta”; type: functional, organism-based; conditions: dose 1-2.5 mg/kg, time 5.0 day
[16] = biological target: High affinity cAMP-specific and IBMX-insensitive 3',5'-cyclic phosphodiesterase 8A (Homo sapiens) (UniProt O60658); test: Inhibition of PDE8A1 (unknown origin) using FAM-cyclic-3',5'-AMP as substrate at 10 uM incubated for 1 hrs by fluorescence polarization based IMAP assay relative to control
Sequence of High affinity cAMP-specific and IBMX-insensitive 3',5'-cyclic phosphodiesterase 8A (Homo sapiens) (O60658 whole entry): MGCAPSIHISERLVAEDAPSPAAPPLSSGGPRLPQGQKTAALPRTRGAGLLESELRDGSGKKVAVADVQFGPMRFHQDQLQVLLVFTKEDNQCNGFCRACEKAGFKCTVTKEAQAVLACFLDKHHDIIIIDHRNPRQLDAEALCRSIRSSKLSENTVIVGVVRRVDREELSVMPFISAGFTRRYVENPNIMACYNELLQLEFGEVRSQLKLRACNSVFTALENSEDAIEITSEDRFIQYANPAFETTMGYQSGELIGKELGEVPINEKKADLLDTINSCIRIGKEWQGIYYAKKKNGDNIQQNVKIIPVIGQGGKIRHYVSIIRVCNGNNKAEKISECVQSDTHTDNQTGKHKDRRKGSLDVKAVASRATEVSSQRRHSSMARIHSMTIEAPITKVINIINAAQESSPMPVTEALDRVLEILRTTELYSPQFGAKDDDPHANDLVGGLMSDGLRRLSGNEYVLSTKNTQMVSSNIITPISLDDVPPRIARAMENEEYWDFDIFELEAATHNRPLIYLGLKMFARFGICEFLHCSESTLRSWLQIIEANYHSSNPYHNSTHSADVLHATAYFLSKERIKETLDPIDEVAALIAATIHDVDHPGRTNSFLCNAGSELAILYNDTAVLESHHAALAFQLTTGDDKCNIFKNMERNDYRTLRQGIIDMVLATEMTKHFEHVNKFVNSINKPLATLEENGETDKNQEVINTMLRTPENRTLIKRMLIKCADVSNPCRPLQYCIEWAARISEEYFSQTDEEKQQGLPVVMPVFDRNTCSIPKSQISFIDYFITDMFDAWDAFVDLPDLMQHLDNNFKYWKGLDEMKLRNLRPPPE

[17] = Clearance in Sprague-Dawley rat at 2 mg/kg, iv measured after 24 hrs by LC-MS analysis; type: ADME, organism-based; conditions: in vivo
Mus musculus [18] = test: as §2, with “exposure-induced anxiety like behavior” for “use disorder”, “increase” for “decrease”, “center time” for “alcohol intake”, “and measured 24 hrs after alcohol withdrawal” for “on day 46”, “open field” for “Drink-in-Dark”; type: functional, organism-based; conditions: dose 1-2.5 mg/kg, time 24.0 day
[19] = Selectivity ratio for inhibition of PDE8A1 (unknown origin) using FAM-cyclic-3',5'-AMP as substrate to inhibition of PDE4D7 (unknown origin) using FAM-cyclic-3',5'-AMP as substrate
[20] = Drug concentration in Sprague-Dawley rat liver at 10 mg/kg, po administered as single dose for 1 hrs by LC-MS analysis; type: ADME, organism-based; conditions: read-out: Ct
Mus musculus [21] = test: as §1, with “TNF-alpha” for “IL-1beta”; type: functional, organism-based; conditions: dose 1-2.5 mg/kg, time 5.0 day
[22] = biological target: T1, 3',5'-cyclic-AMP phosphodiesterase 4D; test: Inhibition of PDE4D7 (unknown origin) using FAM-cyclic-3',5'-AMP as substrate at 100 nM incubated for 1 hrs by fluorescence polarization based IMAP assay relative to control
Mus musculus [23] = test: as §1, with “serum TNF-alpha” for “liver IL-1beta mRNA”, “ELISA” for “RT-qPCR analysis”; type: functional, organism-based; conditions: dose 1-2.5 mg/kg, time 5.0 day
[24] = Chemical stability of compound in aqueous solution at pH >10 measured after 48 hrs; type: physicochemical; conditions: buffer
Mus musculus [25] = test: as §1, with “decrease” for “reduction”, “serum AST” for “liver IL-1beta mRNA”, “absorbance based plate analyzer” for “RT-qPCR analysis”; type: functional, organism-based; conditions: dose 1-2.5 mg/kg, time 5.0 day
[26] = AUC (0 to infinity) in Sprague-Dawley rat at 2 mg/kg, iv measured after 24 hrs by LC-MS analysis; type: ADME, organism-based; conditions: in vivo
[27] = Chemical stability of compound in aqueous solution at pH <6 measured after 48 hrs; type: physicochemical; conditions: buffer
[28] = Drug concentration in Sprague-Dawley rat plasma at 10 mg/kg, po administered as single dose for 2 hrs by LC-MS analysis; type: ADME, organism-based
HT-22 = test: Cytotoxicity against mouse HT-22 cells assessed as reduction in cell viability incubated for 48 hrs by MTT assay; type: toxicity, cell-based; conditions: ht-22, 48 h
Mus musculus [29] = test: Protection against alcohol use disorder in C57BL/6J mouse model assessed as decrease in alcohol intake at 1 to 2.5 mg/kg, po pre-trained with alcohol and water for 42 days with subsequent compound addition on day 22 and measured after 3 weeks by two-bottle choice test; type: functional, organism-based; conditions: dose 1-2.5 mg/kg
SH-SY5Y [30] = test: Cytotoxicity against human SH-SY5Y cells assessed as reduction in cell viability incubated for 48 hrs by MTT assay; type: toxicity, cell-based
[31] = Selectivity ratio for inhibition of PDE7A (unknown origin) using FAM-cyclic-3',5'-AMP as substrate to inhibition of PDE4D7 (unknown origin) using FAM-cyclic-3',5'-AMP as substrate
[32] = Drug concentration in Sprague-Dawley rat plasma at 10 mg/kg, po administered as single dose for 1 hrs by LC-MS analysis; type: ADME, organism-based
SH-SY5Y [33] = test: Protection against alcohol-induced cytotoxicity in human SH-SY5Y cells assessed as increase in cell viability at 0.25 to 1 uM preincubated with compound for 1 hrs followed by ethanol administration and measured after 24 hrs by CCK8 assay; type: functional, cell-based; conditions: dose 0.25-1 µM, time 25.0 hrs

With CCOc1nc(Cl)cc2c1cnn2CCCC(=O)O as the compound, how does the Cmax [1] read?
Its Cmax is 23200 ng/mL.

What about the Activity (Mus musculus [2]) of the same compound?
Its Activity is “Active”.

And the Activity [3]?
The Activity was “Non-Toxic”.

And the Activity (Mus musculus [4])?
The Activity was “Active”.

What about the Selectivity ratio [5] of the same compound?
Its Selectivity ratio is over 267.

What about the concentration at 1 h [6] of the same compound?
The concentration at 1 h was 322 ng/g.

What about the Activity [7] of the same compound?
The Activity was “Non-Toxic”.

What about the Cmax [8] of the same compound?
Its Cmax is 43300 ng/mL.

And the Activity (Mus musculus [9])?
Its Activity is “Active”.

And the half-life [10]?
The half-life was 9.3 h.

What about the AUC(0-t) at 24 h [11] of the same compound?
Its AUC(0-t) at 24 h is 669 µg·h/mL.

What about the inhibition [12] of the same compound?
The inhibition was 21%.

And the Selectivity ratio [13]?
The Selectivity ratio was over 267.

And the Vd [14]?
The Vd was 0.0719 L/kg.

And the Activity (Mus musculus [15])?
Its Activity is “Active”.

What about the inhibition [16] of the same compound?
The inhibition was 9%.

And the clearance [17]?
Its clearance is 0.211 mL/min/kg.

What about the Activity (Mus musculus [18]) of the same compound?
The Activity was “Active”.

What about the Selectivity ratio [19] of the same compound?
The Selectivity ratio was over 267.

What about the concentration at 1 h [20] of the same compound?
The concentration at 1 h was 11200 ng/g.

What about the Activity (Mus musculus [21]) of the same compound?
The Activity was “Active”.

And the inhibition [22]?
Its inhibition is 72%.

And the Activity (Mus musculus [23])?
Its Activity is “Active”.

What about the Stability [24] of the same compound?
Its Stability is “Stable”.

What about the Activity (Mus musculus [25]) of the same compound?
The Activity was “Active”.

And the AUC(0-inf) [26]?
Its AUC(0-inf) is 143 µg·h/mL.

What about the Stability [27] of the same compound?
The Stability was “Stable”.

What about the concentration at 2 h [28] of the same compound?
The concentration at 2 h was 27000 ng/mL.

And the Activity (HT-22)?
The Activity was “Non-Toxic”.

And the Activity (Mus musculus [29])?
The Activity was “Active”.

What about the Activity (SH-SY5Y [30]) of the same compound?
Its Activity is “Non-Toxic”.

And the Selectivity ratio [31]?
Its Selectivity ratio is over 267.

And the concentration at 1 h [32]?
The concentration at 1 h was 19500 ng/mL.

And the Activity (SH-SY5Y [33])?
Its Activity is “Active”.

From ChEMBL document CHEMBL5532675, “Discovery of 4-Ethoxy-6-chloro-5-azaindazoles as Novel PDE4 Inhibitors for the Treatment of Alcohol Use Disorder and Alcoholic Liver Diseases” (J Med Chem, 2024)
